Measurements as given in patent US7572603B2, “Alpha-2 adrenergic receptor polymorphisms” (University of Cincinnati, priority 2000, dated 2009).
Numbering of substitutions follows the chain as printed.

Assays:
[1] = molecular target: T1, wild-type alpha-2CAR (Homo sapiens, UniProt P18825, L239R/R446P/S401I); experiment: Inhibition of forskolin-stimulated adenylyl cyclase, CHO cell membranes; type: biochemical; parameters: expressed in transfected cells; membranes or intact cells; conditions: for Max Inhibition (%) of adenylyl cyclase: CHO line expressing 1570 ± 79.9 fmol/mg
T1 sequence (P18825 1-462 L239R/S401I/R446P): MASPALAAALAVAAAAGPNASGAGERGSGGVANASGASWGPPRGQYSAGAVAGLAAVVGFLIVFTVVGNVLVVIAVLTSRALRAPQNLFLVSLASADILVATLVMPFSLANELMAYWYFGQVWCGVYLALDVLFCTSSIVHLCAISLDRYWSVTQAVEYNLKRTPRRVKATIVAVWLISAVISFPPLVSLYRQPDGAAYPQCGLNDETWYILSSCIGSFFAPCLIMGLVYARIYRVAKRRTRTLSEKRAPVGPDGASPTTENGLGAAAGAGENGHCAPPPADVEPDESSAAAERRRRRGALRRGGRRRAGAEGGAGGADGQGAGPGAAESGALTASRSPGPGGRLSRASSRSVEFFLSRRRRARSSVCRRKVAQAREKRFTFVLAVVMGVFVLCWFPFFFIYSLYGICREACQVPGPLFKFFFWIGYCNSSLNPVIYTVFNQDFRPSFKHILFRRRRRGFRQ
From the text: (§1) Reactions were terminated by the addition of a stop solution containing excess ATP and cAMP and —100,000 dpm of [3H]cAMP. Labeled cAMP was isolated by gravity chromatography over alumina columns with [3H]cAMP used to quantitate column recovery. […] Results are expressed as percent inhibition of forskolin stimulated activity.

[2] = molecular target: T2, wild-type alpha-2CAR (Homo sapiens, UniProt P18825); experiment: as above; type: biochemical; conditions: CHO line expressing 1570 ± 79.9 fmol/mg
T2 construct: expressed in transfected cells; membranes or intact cells
T2 sequence (P18825 1-462 L239R/S401I/R446P): T1 sequence (P18825 1-462 L239R/S401I/R446P)
From the text: as §1

[3] = molecular target: T3, Lys251 alpha-2AAR (Homo sapiens, UniProt P08913, N266K); experiment: [35S]GTPyS binding, COS-7 membranes coexpressing receptor and Gi alpha2; type: biochemical; parameters: expressed in transfected cells; membranes or intact cells; conditions: 10 μM agonist
T3 sequence (P08913 16-465 N266K): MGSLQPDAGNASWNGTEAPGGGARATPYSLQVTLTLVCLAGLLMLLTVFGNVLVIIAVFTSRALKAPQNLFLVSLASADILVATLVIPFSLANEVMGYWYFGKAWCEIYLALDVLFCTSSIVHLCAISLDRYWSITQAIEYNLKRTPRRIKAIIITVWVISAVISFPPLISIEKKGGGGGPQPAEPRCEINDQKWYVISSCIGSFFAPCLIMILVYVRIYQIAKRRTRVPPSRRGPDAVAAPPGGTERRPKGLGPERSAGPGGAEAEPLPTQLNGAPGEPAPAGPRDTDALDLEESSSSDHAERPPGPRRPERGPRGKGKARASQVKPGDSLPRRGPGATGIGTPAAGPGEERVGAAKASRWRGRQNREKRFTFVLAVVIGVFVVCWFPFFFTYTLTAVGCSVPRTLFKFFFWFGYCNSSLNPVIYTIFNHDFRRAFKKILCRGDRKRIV
Procedure: Nonspecific binding was measured in the presence of […] GTPyS.

[4] = molecular target: T1, wild-type alpha-2CAR; conditions: epinephrine competition, absence of GTP
[5] = molecular target: T1, wild-type alpha-2CAR; conditions: 10 μM epinephrine vs 1 unit/ml thrombin
[6] = molecular target: T1, wild-type alpha-2CAR; conditions: 10 μM epinephrine, 5 min; expression 806 fmol/mg
[7] = molecular target: T4, wild-type alpha-2BAR (Homo sapiens, UniProt P18089); experiment: Inhibition of forskolin-stimulated adenylyl cyclase, CHO cell membranes, incl. desensitization; type: biochemical; parameters: The human receptor consists of 450 amino acids; expressed in transfected cells; membranes
T4 sequence (P18089 1-450): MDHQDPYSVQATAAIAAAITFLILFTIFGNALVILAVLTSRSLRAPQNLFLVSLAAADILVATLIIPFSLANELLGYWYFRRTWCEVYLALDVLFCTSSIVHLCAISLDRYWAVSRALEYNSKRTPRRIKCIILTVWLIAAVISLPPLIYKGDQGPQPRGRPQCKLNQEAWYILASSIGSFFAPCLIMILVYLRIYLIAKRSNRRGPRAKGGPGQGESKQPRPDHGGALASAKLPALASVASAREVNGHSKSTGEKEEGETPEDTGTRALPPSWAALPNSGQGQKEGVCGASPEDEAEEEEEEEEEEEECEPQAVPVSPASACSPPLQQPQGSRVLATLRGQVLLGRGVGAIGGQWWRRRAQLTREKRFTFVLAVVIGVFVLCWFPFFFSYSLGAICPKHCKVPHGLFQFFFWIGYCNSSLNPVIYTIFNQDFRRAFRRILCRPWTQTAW
Procedure: Alpha-2BAR inhibition of adenylyl cyclase was determined in membrane preparations from CHO cells stably expressing the two receptors using methods similar to those previously described (25). […] Reactions were terminated by the addition of a stop solution containing excess ATP and cAMP and -100,000 dpm of [3H]cAMP. Labeled cAMP was isolated by gravity chromatography over alumina columns with [3H]cAMP used to quantitate column recovery. Results are expressed as percent inhibition of forskolin stimulated activity.

[8] = molecular target: T4, wild-type alpha-2BAR; type: cell-based; parameters: expressed in transfected cells; host or cells: COS-7, transient (DEAE-dextran), co-transfected with GRK2; conditions: 10 μM norepinephrine 15 minutes, GRK2 co-expressed
[9] = molecular target: T5, wild-type Asn251 alpha-2AAR (Homo sapiens, UniProt P08913); conditions: expression 2360±263 fmol/mg
T5 sequence (P08913 16-465): T3 sequence (P08913 16-465 N266K) with K251N
Procedure: (§2) Alpha-2AAR inhibition of adenylyl cyclase was determined in membrane preparations from CHO cells stably expressing the two receptors using methods similar to those previously described (18). […] Reactions were terminated by the addition of a stop solution containing excess ATP and cAMP and —100,000 dpm of [3H]cAMP. Labeled cAMP was isolated by gravity chromatography over alumina columns with [3H]cAMP used to quantitate column recovery. […] Results are expressed as percent inhibition of forskolin stimulated activity.

[10] = molecular target: T3, Lys251 alpha-2AAR
Procedure: as §2

CCN1CCc2nc(N)oc2CC1 [BHT-933]
Max Inhibition (%) of adenylyl cyclase [1]: 56.8 ± 1.41%
EC50 [2]: 5500 ± 2110 nM
enhanced [35S]GTPyS binding for the Lys251 receptor as compared to the Asn251 receptor [3]: 45%

Brc1c(NC2=NCCN2)ccc2nccnc12 [UK 14304]
Max Inhibition (%) of adenylyl cyclase [1]: 67.6 ± 2.09%
enhanced [35S]GTPyS binding for the Lys251 receptor as compared to the Asn251 receptor [3]: ~40%

Clc1cccc(Cl)c1N=C1NCCN1 [clonidine]
Max Inhibition (%) of adenylyl cyclase [1]: 38.5 ± 2.44%

CNC[C@H](O)c1ccc(O)c(O)c1 [epinephrine]
agonist-promoted inhibition of adenylyl cyclase ([1]; lower expressing line, 565 fmol/mg): 73%
% RH (percentage of receptors in the high-affinity state) [4]: 42%
MAP kinase stimulation as a percent of the thrombin response [5]: 128
stimulated accumulation of inositol phosphates over basal [6]: 3Q

N=C(N)N/N=C/c1c(Cl)cccc1Cl [guanabenz]
Max Inhibition (%) of adenylyl cyclase [1]: 53.8 ± 1.99%
enhanced [35S]GTPyS binding for the Lys251 receptor as compared to the Asn251 receptor [3]: 72%

NC[C@H](O)c1ccc(O)c(O)c1 [norepinephrine]
Max Inhibition (%) of adenylyl cyclase [1]: 76.6 ± 1.60%
Desensitization % ([7]; after 10 μM norepinephrine 30 min at 37° C.): ~54%
Submax inhibition % Ctrl ([7]; at the EC50 of control membranes, cells pretreated with media alone): 16.5±3.9%
Max Inhibition of forskolin-stimulated adenylyl cyclase ([7]; receptor density 626±54 fmol/mg): 28.5±1.6%
fold increase in receptor phosphorylation with agonist exposure [8]: 5.84±0.49 fold
enhanced [35S]GTPyS binding for the Lys251 receptor as compared to the Asn251 receptor [3]: ~40%

Cc1cc(C(C)(C)C)c(O)c(C)c1CC1=NCCN1 [oxymetazoline]
Max Inhibition (%) of adenylyl cyclase [1]: 27.0 ± 2.70%
Maximal inhibition of forskolin-stimulated adenylyl cyclase [9]: 35±4.7%
augmented function (adenylyl cyclase inhibition) compared to the Asn251 receptor ([10]; Lys251 vs Asn251): ~40%
Maximal inhibition of forskolin-stimulated adenylyl cyclase ([10]; expression 2590±140 fmol/mg): 50±6.6%
